# Tests used:
# [1] = Pharmacokinetics of the indoloquinone-acetyl salicylic acid conjugate in carrageenin air pouch rats (HPLC of blood, exudate, urine); type: in vivo, male Wistar albino rats; conditions: rats with carrageenin air pouch, 20 mg conjugate injected, exudate and urine collected after 2 or 4 hours
# Protocol: Pharmacokinetics of the indoloquinone-acetyl salicylic acid conjugate of Example 5 were studied as follows:
# Three groups of male Wistar albino rats (n=5) received sterile air dorsally (day 1). After two days a further 20 ml sterile air were administered. On day 5, 2 ml of a 1% carrageenin in sterile saline was injected directly into the air pouch. Animals were housed in metabolic cages. 100 mg of the indoloquinone-aspirin conjugate of Example 5 were suspended in ethanol (2 ml). 50 mg acetyl salicylic acid was dissolved in 2 ml ethanol. 2 ml ethanol was used as a control. 18 ml sterile water were added to each sample. On day 9, each animal was injected with 4 ml of solution as follows: Group A—20 mg indoloquinone-aspirin conjugate Group B—10 mg acetyl salicylic acid Group C—ethanol (control) The animals were then returned to their cages for periods of either 2 (nos. 1, 2 and 3 from each group) or 4 hours (nos. 4 and 5 from each group). After this time the animals were anaesthetized and blood and exudate collected. Available urine was also collected.
# [2] = Reduction initiated release of aspirin, product analysis (HPLC) following γ-radiolysis; type: physicochemical; conditions: reduction by (CH3)2C.OH radical; N2O-saturated solution, quinone 100 μM, 2-propanol 8.3M (50%, v/v), pH 7.4
# Protocol: The reduction initiated release of aspirin from the indoloquinone-acetyl salicylic acid conjugate of Example 5 was investigated by product analysis (HPLC) following γ-radiolysis of N2O-saturated solutions containing the quinone (100 μM) and 2-propanol (8.3M, 50%, v/v) at pH 7.4.
# The radiation chemical yield (G) of the (CH3)2C.OH radical in N2O-saturated 2-propanol/water mixtures was determined by ferricyanide reduction to be G((CH3)2C.OH)=0.67±0.02 μmol J^−1 in 2-propanol/water (50%, v/v) and 0.72±0.03 μmol J^−1 in 1 M 2-propanol respectively. […] Loss of the parent quinone (G(−Q)=1.63±0.01 μmol J^−1) parallel the formation of the aspirin leaving group (LG) with G(LG)=1.40±0.15 μmol J^−1.
# Indolequinone solutions were saturated with N2O gas in gas-tight vials before irradiation in a ^60Co source. […] A dose rate of 6-6.5 Gy min^−1 was used, as determined by Fricke dosimetry and radiation chemical yields were corrected for the absorbed dose in the various alcohol-water mixtures employed.
# Product analysis following γ-radiolysis was performed by gradient HPLC separation on a 100 mm×4.6 mm base-deactivated reverse-phase column (Hichrom RPB, Hichrom, Reading, U.K.). […] Detection was at 232 nm using a Waters 486 detector (Watford, U.K.) and concentrations were determined from peak areas using Waters Maxima software.
smiles,measurement,setting,value
"COC1=CC(=O)c2c(c(COC(=O)c3ccccc3OC(C)=O)c(C)n2C)C1=O [Example 5, 3-(2-Acetoxybenzoyloxy)methyl-1,2-dimethyl-5-methoxyindole-4,7-dione]",Cleavage of conjugate in collected samples (HPLC),[1],cleaved to liberate acetyl salicylic acid
same,"Formation of the aspirin leaving group, radiation chemical yield G(LG)",[2],1.40 ± 0.15 µmol/J
same,"Loss of the parent quinone, radiation chemical yield G(−Q)",[2],1.63 ± 0.01 µmol/J
